Data set [1] is described as follows: UV-Vis absorbance, fluorescence emission and quantum yield in organic solvents. Type of data set: physicochemical. As to the method: The absorption, emission, and fluorescence lifetime characteristics of all four TTz dyes were recorded in a variety of organic solvents (FIGS. 7A-7B, Table of FIG. 8). Additionally, HOMO/LUMO levels of the TTz dyes were determined computationally in Spartan 16 using B3LYP/6-31g. Molar absorptivities of all the TTz dyes ranged from 13,000 to 86,000 cm^−1M^−1. […] However, the peak absorbance of Bu2N-TTz-Py in DCM was slightly red-shifted as compared to that of Ph2N-TTz-Py (λmax, abs=429 nm vs λmax, abs=422 nm in DCM), which is attributed to the diphenylamine moiety having weaker donor characteristics. […] Due to the low estimated ground state dipole moments of the TTz dyes (μ=6-8 D), their wavelengths of absorbance remained relatively solvent independent (st. dev.=±11 nm).
4-pyridine carboxaldehyde, 4-(dibutylamino)benzaldehyde, 4-(diphenylamino)benzaldehyde, terephthalaldehyde, dithiooxamide, and all solvents used for spectroscopic measurements were purchased from Sigma-Aldrich and used without further purification. ^1H and ^13CNMR measurements were obtained with either a JEOL 300 MHz NMR or a JEOL 500 MHz NMR. High resolution mass spectra were obtained using a Thermo Fisher Scientific MSQ Plus Single Quadrupole Mass Spectrometer. Solution-state UV-Vis spectra were collected on a Cary 300 UV-Vis spectrophotometer. Time-resolved measurements were taken on a Jobin Yvon-Spex Fluorolog equipped with a 389 nm diode laser for time-resolved PL decay measurements. Igor Pro 6.3 software was used to fit PL(t) decay data to single/multiple exponential decays. Quantum yields were calculated using 9,10-diphenylanthracene as a reference (quantum yield [ΦF] in cyclohexane=0.97).^40-41 Density functional theory (DFT) calculations were performed with Spartan computational software using B3LYP^42-43 density functional and 6-31G*^44 basis set. Temperature studies were conducted using a 10 μM Bu2N-TTz-Py MeTHF solution placed inside of a Norrell 502 NMR tube and sequentially submerged in the following liquid N2 baths:octanol (−16° C.), acetonitrile (−41° C.), acetone (−94° C.), pentane (−131° C.), MeTHF (−136° C.), and liquid N2 itself (−196° C.). The phosphorescence spectrum of Bu2N-TTz-Py (see S2) was collected similarly at −196° C. by pumping with 389 nm light while inside a liquid nitrogen bath and then probing the emission within 2 sec of removing from the bath. Human embryonic kidney cells (HEK 293T) were a kind gift from Prof. Bryan Dickinson, and Mouse macrophage J774A.1 cells were a kind gift from Prof. Deborah Nelson at the University of Chicago. Cells were cultured in Dulbecco's Modified Eagle's Medium (Invitrogen Corporation, USA) containing 10% heat inactivated Fetal Bovine Serum (FBS) (Invitrogen Corporation, USA), 100 U/mL penicillin, and 100 μg/mL streptomycin. Cells were maintained at 37° C. under 5% CO2.

For a further data set, the system named is J774.A1 cells. Briefly: Cell labeled spectral measurements. Type of data set: cell-based, Mouse. As to the method: FIG. 11C are normalized excitation/emission spectra of 1 μM Bu2N-TTz-Py in PBS buffer with 0.1% TritonX-100 before and after loading into ~0.5×10^5 J774.A1 cells. Excitation spectra (dashed line) were collected at 520 nm and emission spectra (solid line) were collected with 440 nm excitation.
Cell labeled spectral measurements. Excitation and emission spectra were collected by labeling the alveolar macrophage cell line J774.A1 (~0.5×10^5 cells) with 1 μM Bu2N-TTz-Py in phosphate buffered saline (PBS) buffer and 0.1% TritonX-100. Cells were incubated with dye for 10 min at RT, washed thrice with PBS, and dispersed in a cuvette for fluorescent spectral measurements (Fluoromax-4, Horiba Scientific, Edison, NJ, USA). Excitation spectra were collected at 520 nm emission. Emission spectra were collected by exciting at 440 nm. Electrophysiology. Whole cell voltage clamping measurements of 500 nM Bu2N-TTz-Py labeled HEK 293T cells were performed with Axopatch 200A amplifier (Molecular Devices), digitized using an NI-6251 DAQ (National Instruments), and controlled using WinWCP software (Strathclyde Electrophysiology Software). Patch pipettes were pulled using a Sutter P-97 Micropipette puller. Patch pipettes with resistances between 5-10 MOhm were used in voltage clamping experiments. The patch pipette was positioned using an MP325 motorized manipulator (Sutter). Metamorph premier Ver. 7.8.12.0 was linked to an NI-6501 DAQ to enable voltage triggered image acquisition. Extracellular solution composition was 145 mM NaCl, 20 mM glucose, 10 mM HEPES, pH 7.4, 3 mM KCl, 2 mM CaCl2), 1 mM MgCl2 (310 mOsm); and the intracellular solution composition was 115 mM potassium gluconate, 10 mM EGTA tetrapotassium salt, 10 mM HEPES, pH 7.2, 5 mM NaCl, 10 mM KCl, 2 mM ATP disodium salt (290 mOsm).

The nature of data set [2]: Lippert-Mataga analysis of excited state dipole moments. The format is physicochemical. The note with it: semi-empirically calculated using the Lippert-Mataga equation. As for the experimental part: The calculated HOMOs/LUMOs indicate that the strong solvatofluorochromism arises from an ICT mechanism, whereby the ground state has significant electron localization on the donor side of the molecule whereas the electron density shifts to the acceptor moiety in the excited state. To more directly quantify the strong ICT character of the TTz dyes, the excited-state dipole moments were calculated using the Lippert-Mataga equation (Eq 1):
[formula] where va and vf are the wavenumbers of the absorption and emission peaks in cm^−1, respectively; μ* and μ are the excited state and ground state dipoles, respectively; ϵ0 is the vacuum permittivity, h is Planck's constant, c is the speed of light, a is the Onsager cavity radius, Δf is the orientation polarizability, ϵ is the relative permittivity, and η is the refractive index. The dipoles were calculated using Spartan 2016 software, and the Onsager cavity radii were calculated using Gaussian '09 software.
FIGS. 9A and 9B show the Stokes shift of Bu2N-TTz-Py and Ph2N-TTz-COOH versus Δf, respectively. From the slopes of the Lippert-Mataga plots, the change between the dipole moments of the ground and excited states can be determined. Even though the Lippert-Mataga equation assumes no specific solvent-solute interactions (e.g. hydrogen bonding) and ignores solute polarizability, high degrees of linearity are apparent; and therefore, the estimations of the excited state dipoles are regarded as reliable. […] Perhaps owing to the minimal solvent interactions and rapid vibrational relaxation, the estimated changes in dipole moments (Δμ) are remarkably large (Table IV). […] Therefore, it is expected that these asymmetric TTzs dyes would be well suited to give high sensitivity in sensing applications whereby small changes in the polarity of the environment can lead to large differences in the wavelengths of fluorescence.

Data set [3] in a line: Solubility in aqueous environments. The format is physicochemical.

Each structure is given as a SMILES string.

On to `CCCCN(CCCC)c1ccc(-c2nc3sc(-c4ccncc4)nc3s2)cc1` [Bu2N-TTz-Py, 2-(N,N-dibutyl-4-aminophenyl)-5-(4-pyridyl) thiazolo[5,4-d]thiazole], for which, in data set [1] (MeOH, reference 9,10-diphenylanthracene), the “quantum yield ΦMeOH” value stood at 0.04. Moreover, the “QY in aqueous environments” value in data set [1] (aqueous environments) is “low QY”. Further, the “quantum yield Φhex” value in data set [1] (hex, reference 9,10-diphenylanthracene) was determined as 0.93. For the same molecule, the “peak absorbance λmax, abs” value in data set [1] (in DCM) was found to be 429 nm. This molecule yielded a peak emission wavelength with J774.A1 cells (localized to cell membranes, 440 nm excitation) of 483 nm. For the same molecule, the peak excitation wavelength with J774.A1 cells (localized to cell membranes, collected at 520 nm emission) is recorded as 423 nm. Also, in the data set on J774.A1 cells (solution of PBS with 0.1% Triton-X100, before loading into cells), the “wavelength of peak emission” value is listed as 518 nm. In data set [2], the “Change in Dipole Δμ” value is 15.9 D and the “Excited State Dipole μ*” value was 24.3 D. The “solubility in aqueous environments” value in data set [3] was “poor solubility”.

These data come from patent publication US12707888B2, “Asymmetric donor-acceptor molecular dyes” (THE UNIVERSITY OF NORTH CAROLINA AT CHARLOTTE, priority 2019, dated 2026).
